Consider 35 compounds from patent publication US8673908B2, “Kynurenine production inhibitor” (Kyowa Hakko Kirin Co., Ltd., priority 2008, dated 2014).

The test system of the assay is kynurenine production in IFN-γ-treated KATO-III cells. The experiment in a line: Inhibitory activity on kynurenine production (Test Example 1). The assay is classed as cell-based. The note with it: Homo sapiens, IFN-γ treatment, culture for 96 hours, read-out: IC50 value, inhibition of kynurenine production. Summed up:
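Read-out is absorbance at 480 nm of medium treated with trichloroacetic acid, then p-dimethylaminobenzaldehyde, to quantify kynurenine. DMSO-only wells with and without IFN-γ serve as references. Cells were KATO-III, 2,000 per well, 96 h at 37 °C/5% CO2 with compound (DMSO ≤0.1%) and IFN-γ at 31.25 ng/mL in the added suspension.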
Broadly, the IC50 is the concentration that inhibits the measured activity by half. For `O=S(=O)(Nc1nc2ccccc2nc1OC(c1cccnc1)C(F)(F)F)c1cccnc1` (centres unmarked) [Compound 139, N-{3-[2,2,2-trifluoro-1-(pyridin-3-yl)ethoxy]quinoxalin-2-yl}pyridine-3-sulfonamide], the 50% inhibitory concentration (IC50) was below 1000 nM. To `CCCS(=O)(=O)Nc1nc2ccccc2nc1OC(c1cncc(OC)c1)C(F)(F)F` (centres unmarked) [Compound 334, N-{3-[2,2,2-trifluoro-1-(5-methoxypyridin-3-yl)ethoxy]-quinoxalin-2-yl}propane-1-sulfonamide] belongs below 1000 nM; to `Cc1noc(C)c1S(=O)(=O)Nc1nc2ccccc2nc1OC(c1cnc(Cl)s1)C(F)(F)F` (centres unmarked) [Compound 198, N-{3-[1-(2-chlorothiazol-5-yl)-2,2,2-trifluoroethoxy]-quinoxalin-2-yl}-3,5-dimethylisoxazole-4-sulfonamide], below 1000 nM; to `O=S(=O)(Nc1nc2ccccc2nc1OC(c1cccnc1)C(F)(F)F)c1ccccc1F` (centres unmarked) [Compound 144, 2-fluoro-N-{3-[2,2,2-trifluoro-1-(pyridin-3-yl)ethoxy]-quinoxalin-2-yl}benzenesulfonamide], below 1000 nM.

As to `COCCCS(=O)(=O)Nc1nc2ccccc2nc1OC(c1cccnc1)C(F)(F)F` (centres unmarked) [Compound 301, 3-methoxy-N-{3-[2,2,2-trifluoro-1-(pyridin-3-yl)ethoxy]-quinoxalin-2-yl}propane-1-sulfonamide], the IC50 is below 1000 nM. To `Cc1ccc(C(Oc2nc3ccccc3nc2NS(=O)(=O)NC2CC2)C(F)(F)F)cn1` (centres unmarked) [Compound 285, N-{3-[2,2,2-trifluoro-1-(6-methylpyridin-3-yl)ethoxy]-quinoxalin-2-yl}-N′-cyclopropyl-sulfuric diamide] belongs below 1000 nM; to `O=S(=O)(CC1CC1)Nc1nc2ccccc2nc1OC(c1ccc(Cl)nc1)C(F)(F)F` (centres unmarked) [Compound 308, 1-cyclopropyl-N-{3-[1-(6-chloropyridin-3-yl)-2,2,2-trifluoroethoxy]quinoxalin-2-yl}methanesulfonamide], below 1000 nM; to `CC(CN1CCOCC1)Oc1nc2ccccc2nc1NS(=O)(=O)c1ccccc1Cl` (centres unmarked) [Compound 230, 2-chloro-N-[3-(1-morpholinopropan-2-yloxy)quinoxalin-2-yl]-benzenesulfonamide], below 1000 nM. To `O=S(=O)(Nc1nc2ccccc2nc1OC(c1cncn1CC1CC1)C(F)(F)F)c1ccccc1Cl` (centres unmarked) [Compound 111, 2-chloro-N-{3-[2,2,2-trifluoro-1-(1-cyclopropylmethyl-1H-imidazol-5-yl)ethoxy]quinoxalin-2-yl}benzenesulfonamide] belongs below 1000 nM; to `O=S(=O)(Nc1nc2ccccc2nc1OC(c1cccc(F)c1)C(F)(F)F)c1ccccc1Cl` (centres unmarked) [Compound 83, 2-chloro-N-{3-[2,2,2-trifluoro-1-(3-fluorophenyl)ethoxy]-quinoxalin-2-yl}benzenesulfonamide], below 1000 nM. To `O=S(=O)(Nc1nc2ccccc2nc1OC(c1cn(CC2CC2)cn1)C(F)(F)F)c1ccccc1Cl` (centres unmarked) [Compound 112, 2-chloro-N-{3-[2,2,2-trifluoro-1-(1-cyclopropylmethyl-1H-imidazol-4-yl)ethoxy]quinoxalin-2-yl}benzenesulfonamide] belongs below 1000 nM; to `O=S(=O)(Nc1nc2ccccc2nc1OC(C(F)(F)F)C(F)(F)F)c1ccccc1Cl` [Compound 321, 2-chloro-N-{3-[(1,1,1,3,3,3-hexafluoropropan-2-yl)oxy]-quinoxalin-2-yl}benzenesulfonamide], below 1000 nM; to `O=S(=O)(CC1CC1)Nc1nc2ccccc2nc1OC(c1cccnc1)C(F)(F)F` (centres unmarked) [Compound 303, 1-cyclopropyl-N-{3-[2,2,2-trifluoro-1-(pyridin-3-yl)-ethoxy]quinoxalin-2-yl}methanesulfonamide], below 1000 nM. With `CCCS(=O)(=O)Nc1nc2ccccc2nc1OC(c1cncc(Cl)c1)C(F)(F)F` (centres unmarked) [Compound 335, N-{3-[2,2,2-trifluoro-1-(5-chloropyridin-3-yl)ethoxy]-quinoxalin-2-yl}propane-1-sulfonamide], the IC50 is below 1000 nM. In the case of `O=S(=O)(Nc1cc2ccccc2nc1OC(c1cccnc1)C(F)(F)F)c1ccccc1Cl` (centres unmarked) [Compound 360, 2-chloro-N-{2-[2,2,2-trifluoro-1-(pyridin-3-yl)ethoxy]-quinolin-3-yl}benzenesulfonamide], the IC50 was in the range of 1000 to 10000 nM. To `CCCS(=O)(=O)Nc1nc2ccccc2nc1OC(c1ccc(Cl)cc1)C(F)(F)F` (centres unmarked) [Compound 302, N-{3-[1-(4-chlorophenyl)-2,2,2-trifluoroethoxy]quinoxalin-2-yl}propane-1-sulfonamide] belongs below 1000 nM. To `O=S(=O)(Nc1nc2ccccc2nc1OCCCc1cccnc1)c1cccc(Cl)c1Cl` [Compound 159, 2,3-dichloro-N-{3-[3-(pyridin-3-yl)propoxy]quinoxalin-2-yl}benzenesulfonamide] belongs below 1000 nM; to `O=S(=O)(Nc1nc2ccccc2nc1OC(c1cncs1)C(F)(F)F)c1cccc(Cl)c1Cl` (centres unmarked) [Compound 98, 2,3-dichloro-N-{3-[2,2,2-trifluoro-1-(thiazol-5-yl)ethoxy]-quinoxalin-2-yl}benzenesulfonamide], below 1000 nM; to `N#Cc1ccc(C(Oc2nc3ccccc3nc2NS(=O)(=O)c2ccccc2Cl)C(F)(F)F)cc1` (centres unmarked) [Compound 42, 2-chloro-N-{3-[2,2,2-trifluoro-1-(4-cyanophenyl)ethoxy]-quinoxalin-2-yl}benzenesulfonamide], below 1000 nM. For `CC(C)(F)C(Oc1nc2ccccc2nc1NS(=O)(=O)c1cccc(Cl)c1Cl)c1cccnc1` (centres unmarked) [Compound 39, 2,3-dichloro-N-{3-[2-fluoro-2-methyl-1-(pyridin-3-yl)-propoxy]quinoxalin-2-yl}benzenesulfonamide], the IC50 was below 1000 nM. On to `COc1ccc(C(Oc2nc3ccccc3nc2NS(=O)(=O)c2ccccc2Cl)C(F)(F)F)cn1` (centres unmarked) [Compound 64, 2-chloro-N-{3-[2,2,2-trifluoro-1-(6-methoxypyridin-3-yl)-ethoxy]quinoxalin-2-yl}benzenesulfonamide], for which the IC50 is below 1000 nM. To `O=S(=O)(Nc1nc2ccccc2nc1OC(c1ccco1)C(F)(F)F)c1ccccc1Cl` (centres unmarked) [Compound 109, 2-chloro-N-{3-[2,2,2-trifluoro-1-(furan-2-yl)ethoxy]-quinoxalin-2-yl}benzenesulfonamide] belongs below 1000 nM. For `CCCS(=O)(=O)Nc1nc2ccccc2nc1OC(C(F)(F)F)C1(F)CCN(C(C)=O)CC1` (centres unmarked) [Compound 354, N-{3-[2,2,2-trifluoro-1-(1-acetyl-4-fluoropiperidin-4-yl)-ethoxy]quinoxalin-2-yl}propane-1-sulfonamide], the half-inhibitory concentration (IC50) is below 1000 nM. In the case of `O=S(=O)(Nc1nc2ccccc2nc1OC(c1ccc(C2CC2)nc1)C(F)(F)F)c1ccccc1Cl` (centres unmarked) [Compound 89, 2-chloro-N-{3-[2,2,2-trifluoro-1-(6-cyclopropylpyridin-3-yl)ethoxy]quinoxalin-2-yl}benzenesulfonamide], the IC50 was below 1000 nM. To `Cc1ncsc1C(Oc1nc2ccccc2nc1NS(=O)(=O)c1ccccc1Cl)C(F)(F)F` (centres unmarked) [Compound 107, 2-chloro-N-{3-[2,2,2-trifluoro-1-(4-methylthiazol-5-yl)-ethoxy]quinoxalin-2-yl}benzenesulfonamide] belongs below 1000 nM; to `CCCS(=O)(=O)Nc1nc2ccccc2nc1OC(C1CCN(S(C)(=O)=O)CC1)C(F)(F)F` (centres unmarked) [Compound 336, N-{3-[2,2,2-trifluoro-1-(1-methanesulfonylpiperidin-4-yl)-ethoxy]quinoxalin-2-yl}propane-1-sulfonamide], below 1000 nM. To `CCCS(=O)(=O)Nc1nc2ccccc2nc1OC(c1ccc(Cl)nc1)C(F)(F)F` (centres unmarked) [Compound 278, N-{3-[1-(6-chloropyridin-3-yl)-2,2,2-trifluoroethoxy]-quinoxalin-2-yl}propane-1-sulfonamide] belongs below 1000 nM; to `Cn1cncc1C(Oc1nc2ccccc2nc1NS(=O)(=O)c1cccc(Cl)c1Cl)C(F)(F)F` (centres unmarked) [Compound 97, 2,3-dichloro-N-{3-[2,2,2-trifluoro-1-(1-methyl-1H-imidazol-5-yl)ethoxy]quinoxalin-2-yl}benzenesulfonamide], below 1000 nM; to `CCC1(COc2nc3ccccc3nc2NS(=O)(=O)c2ccccc2Cl)CCOCC1` [Compound 245, 2-chloro-N-{3-[(4-ethyltetrahydro-2H-pyran-4-yl)methoxy]-quinoxalin-2-yl}benzenesulfonamide], below 1000 nM. To `O=S(=O)(Nc1nc2ccccc2nc1SCc1ccccc1)c1ccccc1Cl` [Compound 221, N-[3-(benzylthio)quinoxalin-2-yl]-2-chlorobenzenesulfonamide] belongs 1000 to 10000 nM; to `CN(C)Cc1ccc(C(Oc2nc3ccccc3nc2NS(=O)(=O)c2ccccc2Cl)C(F)(F)F)cc1` (centres unmarked) [Compound 62, 2-chloro-N-{3-[2,2,2-trifluoro-1-(4-dimethylaminomethyl-phenyl)ethoxy]quinoxalin-2-yl}benzenesulfonamide], below 1000 nM. With `O=S(=O)(Nc1nc2ccccc2nc1OC(c1cccnc1)C1(F)CCOCC1)c1ccccc1Cl` (centres unmarked) [Compound 78, 2-chloro-N-{3-[4-fluorotetrahydropyran-4-yl(pyridin-3-yl)-methoxy]quinoxalin-2-yl}benzenesulfonamide], the 50% inhibitory concentration (IC50) is below 1000 nM.

Take `O=S(=O)(Nc1nc2ccccc2nc1OC(c1ccc(F)cc1)C(F)(F)F)c1ccccc1Cl` (centres unmarked) [Compound 59, 2-chloro-N-{3-[2,2,2-trifluoro-1-(4-fluorophenyl)ethoxy]-quinoxalin-2-yl}benzenesulfonamide]: the IC50 was below 1000 nM. To `CCCNS(=O)(=O)Nc1nc2ccccc2nc1OC(c1cccnc1)C(C)C` (centres unmarked) [Compound 213, N-{3-[2-methyl-1-(pyridin-3-yl)propoxy]quinoxalin-2-yl}-N′-propyl-sulfuric diamide] belongs below 1000 nM.

Take `O=S(=O)(Nc1nc2ccccc2nc1OC(c1nccs1)C(F)(F)F)c1cccc(Cl)c1Cl` (centres unmarked) [Compound 99, 2,3-dichloro-N-{3-[2,2,2-trifluoro-1-(thiazol-2-yl)ethoxy]-quinoxalin-2-yl}benzenesulfonamide]: the IC50 is below 1000 nM.
